As usually defined, the inhibition is the percentage by which the read-out fell short of the control.

This note sets out measurements from US6461844B1, “Liver GalNAc-1-phosphate kinase” (The Board of Trustees of the University of Arkansas, priority 1995, dated 2002).

Assay [1] deals with T1, GalNAc kinase (Sus scrofa, UniProt A0A287BB25).
T1 construct: This enzyme was purified about 1400-fold from the cytosolic fraction of pig kidney; from tissue; host or cells: pig kidney cytosol
Nature of the assay: Phosphate donor specificity of GalNAc kinase. Set-up: Radioactivity in Sugar-P: unit not given beside the values. The settings on record: for Radioactivity in Sugar-P / Specific Activity: nucleotide added at 5 mM. The format is biochemical, pig.

Assay [2] deals with T1, GalNAc kinase. In words: Divalent cation requirement of GalNAc kinase. The settings on record: for stimulation of the kinase: tested at a variety of concentrations; for maximum activity relative to optimum concentrations of Mg++: at optimum cation concentration. In kind it is biochemical, pig. The method, then:
FIG. 1 illustrates the effect of various divalent cations on the GalNAc kinase. Various amounts of Mg^++, Mn^++, or Co^++ were added to incubations prepared as indicated below. The amount of GalNAc phosphorylated in each incubation by the purified enzyme was determined as described in the assay conditions.
(§1) GalNAc kinase activity was assayed in incubation mixtures of 200 μl containing the following components: [^3H]GalNAc (10,000 cpm), 1 μmole of ATP, 2 μmoles of MgCl2, 20 μmoles of Tris-HCl buffer, pH 7.5, and various amounts of the enzyme preparations to be assayed. Following an incubation for the appropriate time, the reaction was stopped by heating at 100° C. for 5 min., and the incubation mixture was applied to a column of DE-52. The column was washed with at least 5 column volumes of 10 mM (NH4)HCO3 buffer to remove unbound material, and then GalNAc phosphate was eluted with 500 mM ammonium bicarbonate. Aliquots of the wash and eluent were removed and assayed for their radioactive content by scintillation counting.
The addition of Mg^++ greatly stimulated the activity, and maximum activity occurred at 6 mM Mg^++. Other divalent cations, such as Mn^++ and Co^++ were also somewhat stimulatory, but much less so than Mg^++.

Assay [3] concerns the target T2, yeast galactokinase (Saccharomyces cerevisiae, UniProt P04385).
T2 construct: purchased Sigma Chemical Co
T2 sequence (P04385 1-528): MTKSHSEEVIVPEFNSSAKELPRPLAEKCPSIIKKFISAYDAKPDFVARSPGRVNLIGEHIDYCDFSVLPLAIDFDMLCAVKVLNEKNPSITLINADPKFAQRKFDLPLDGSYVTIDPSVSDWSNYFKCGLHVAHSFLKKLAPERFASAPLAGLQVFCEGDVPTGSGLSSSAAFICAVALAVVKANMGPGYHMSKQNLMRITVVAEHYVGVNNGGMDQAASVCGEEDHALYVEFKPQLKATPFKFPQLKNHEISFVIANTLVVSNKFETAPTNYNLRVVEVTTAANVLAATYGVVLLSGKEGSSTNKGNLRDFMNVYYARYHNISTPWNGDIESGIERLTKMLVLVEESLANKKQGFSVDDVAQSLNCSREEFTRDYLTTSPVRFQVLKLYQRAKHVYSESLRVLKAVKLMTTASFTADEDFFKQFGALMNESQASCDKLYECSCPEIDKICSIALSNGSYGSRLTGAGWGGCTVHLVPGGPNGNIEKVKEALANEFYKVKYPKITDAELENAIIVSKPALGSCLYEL
In words: Sugar specificity of yeast galactokinase. In kind it is biochemical. As to conditions: for Radioactivity Incorporated (Δ cpm): minus 0 ul value. An excerpt:
Galactokinase is an enzyme known to phosphorylate galactose in the one position. […] The specificity of the galactokinase and the GalNAc kinase indicate that they are two different enzymes.

Assay [4] has as its target T1, GalNAc kinase. Nature of the assay: Sugar specificity of GalNAc kinase. In kind it is biochemical, pig. As to conditions: for Radioactivity Incorp.: labeled sugars of same specific activity; for activity as phosphate acceptor: purified kinase; for activity as % of the activity observed with GalNAc: sugar as substrate. The method, then:
as §1
A variety of sugars were tested and in each case the specific radioactivity of the labeled sugar was adjusted with unlabeled material so that all were of the same specific activity in order to allow a true comparison of their ability to serve as substrates for the kinase. The amount of radioactivity that bound to DE-52 and was eluted with (NH4)HCO3 was taken as a measure of phosphorylation by the enzyme.

For assay [5], the target named is T1, GalNAc kinase. Nature of the assay: Effect of sulfhydryl reagents on GalNAc kinase activity. As to conditions: for Activity (cpm in Sugar-P): control 8700. The format is biochemical, pig. The method, then:
as §1
In order to determine whether sulfhydryl groups are necessary for catalytic activity, the effects of various compounds known to react with and inactivate sulfhydryl groups, were examined on the kinase activity.

“Also recorded” adds a separate entry of the source.

T1 sequence (A0A287BB25 1-458): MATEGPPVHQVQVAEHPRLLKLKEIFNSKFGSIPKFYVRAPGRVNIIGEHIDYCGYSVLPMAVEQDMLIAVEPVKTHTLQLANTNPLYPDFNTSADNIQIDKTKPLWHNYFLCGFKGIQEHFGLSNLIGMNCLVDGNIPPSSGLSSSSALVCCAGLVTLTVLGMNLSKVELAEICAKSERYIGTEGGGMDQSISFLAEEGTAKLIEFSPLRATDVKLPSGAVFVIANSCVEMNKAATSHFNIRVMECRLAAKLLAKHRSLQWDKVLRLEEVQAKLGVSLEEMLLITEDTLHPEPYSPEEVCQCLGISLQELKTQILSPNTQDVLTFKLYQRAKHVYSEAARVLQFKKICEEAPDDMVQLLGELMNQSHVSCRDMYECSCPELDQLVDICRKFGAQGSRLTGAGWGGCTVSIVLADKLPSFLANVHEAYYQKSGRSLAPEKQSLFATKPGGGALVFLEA

As for `Nc1ccn([C@@H]2O[C@H](COP(=O)(O)OP(=O)(O)O)[C@@H](O)[C@H]2O)c(=O)n1` [CDP], in assay [1], the “activity as phosphate donor” value is “only slightly above background levels”, the “Radioactivity in Sugar-P” value came out at 490 and the “Specific Activity” value was 7.6 nmol/mg.
In the case of `[Ca+2]` [Ca^++], the “stimulation of the kinase” value in assay [2] was “inactive”.
In the case of `O=c1ccn([C@@H]2O[C@H](COP(=O)(O)OP(=O)(O)OP(=O)(O)O)[C@@H](O)[C@H]2O)c(=O)[nH]1` [UTP], in assay [1], the “Radioactivity in Sugar-P” value came out at 180 and the “Specific Activity” value is on record as 2.8 nmol/mg.
For `N[C@H]1C(O)O[C@H](CO)[C@@H](O)[C@@H]1O` (stereo partly drawn) [GlcN, glucosamine], the Radioactivity Incorporated in assay [3] (2 ul enzyme) is 135 cpm; in assay [3] (4 ul enzyme), 150 cpm. The “Radioactivity Incorporated (Δ cpm)” value in assay [3] (2 ul enzyme) and in assay [3] (4 ul enzyme) was 0 cpm in each case. Further, the “Radioactivity Incorp.” value turned out to be 189 cpm in assay [4] (4 μl enzyme) and 206 cpm in assay [4] (8 μl enzyme). Moreover, the “activity as phosphate acceptor” value in assay [4] was “inactive”.
With `[Co+2]` [Co^++], in assay [2], the “cation concentration for maximum (optimum) activity” value is listed as 10 mM and the “maximum activity relative to optimum concentrations of Mg++” value is recorded as “about 50%”.
On to `[Mo+2]` [Mo^++], for which the “stimulation of the kinase” value in assay [2] was “inactive”.
Still for that read-out and setting: under `[Fe+3]` [Fe^+++] stands “inactive”.
Take `[Mn+2]` [Mn^++]: in assay [2], the “cation concentration for maximum (optimum) activity” value was 2 to 8 mM and the “maximum activity relative to optimum concentrations of Mg++” value is reported as “about 50%”.
Regarding `Nc1ccn([C@@H]2O[C@H](COP(=O)(O)OP(=O)(O)OP(=O)(O)O)[C@@H](O)[C@H]2O)c(=O)n1` [CTP], in assay [1], the “activity as phosphate donor” value is on record as “only slightly above background levels”, the “Radioactivity in Sugar-P” value is 370 and the “Specific Activity” value was 5.8 nmol/mg.
For `O=C(O)c1cc[c]([Hg][Cl])cc1` [pCMB, p-chloromercuribenzoate], the “inhibition of enzymatic activity” value is recorded as “over 70%” in assay [5] (0.02 mM) and “complete inhibition” in assay [5] (0.04 mM). Further, the “Activity (cpm in Sugar-P)” value in assay [5] (inhibitor 0.02 mM) was found to be 2660 cpm; in assay [5] (inhibitor 0.04 mM), 250 cpm; in assay [5] (inhibitor 0.06 mM) it was 30 cpm; in assay [5] (inhibitor 0.1 mM), 20 cpm; in assay [5] (inhibitor 0.25 mM) it was 50 cpm.
For `[Ni+2]` [Ni^++], the “stimulation of the kinase” value in assay [2] is “inactive”.
Consider `O=c1[nH]cnc2c1ncn2[C@@H]1O[C@H](COP(=O)(O)OP(=O)(O)OP(=O)(O)O)[C@@H](O)[C@H]1O` [ITP], for which, in assay [1], the “activity as phosphate donor” value is “slight activity; also recorded: some activity”, the “Radioactivity in Sugar-P” value stood at 900 and the “Specific Activity” value stood at 14.1 nmol/mg.
Taken in the same sequence, the figures for `Nc1ncnc2c1ncn2[C@@H]1O[C@H](COP(=O)(O)OP(=O)(O)O)[C@@H](O)[C@H]1O` [ADP] were “only slightly above background levels”, 260 and 4.0 nmol/mg.
`O=C[C@H](O)[C@@H](O)[C@@H](O)[C@H](O)CO` [Gal, galactose]: the “activity as substrate of yeast galactokinase” value (from here on “activity as substrate”) in assay [3] was “very active”. Besides, in assay [3] (2 ul enzyme), the Radioactivity Incorporated amounted to 6900 cpm and the “Radioactivity Incorporated (Δ cpm)” value is on record as 6835 cpm. Moreover, in assay [3] (4 ul enzyme), the Radioactivity Incorporated was found to be 7530 cpm and the “Radioactivity Incorporated (Δ cpm)” value is given as 7465 cpm. The “Radioactivity Incorp.” value in assay [4] (4 μl enzyme) amounted to 301 cpm. Also, the “Radioactivity Incorp.” value in assay [4] (8 μl enzyme) was 442 cpm. Also, in assay [4], the “activity as phosphate acceptor” value is “inactive” and the “activity as % of the activity observed with GalNAc” value is recorded as 1%.
For the compound `CC(=O)OP(=O)(O)O` [acetylphosphate], in assay [1], the “activity as phosphate donor” value was “No activity”.
Consider `CC(=O)N[C@H]1C(O)O[C@H](CO)[C@H](O)[C@@H]1O` (stereo partly drawn) [GalNAc, N-acetylgalactosamine], for which the “activity as substrate” value in assay [3] is recorded as “no phosphorylation”. Moreover, the Radioactivity Incorporated in assay [3] (2 ul enzyme) is 37 cpm; in assay [3] (4 ul enzyme) it was 83 cpm. In addition, the “Radioactivity Incorporated (Δ cpm)” value in assay [3] (2 ul enzyme) is listed as 0 cpm; in assay [3] (4 ul enzyme), 11 cpm. The “Radioactivity Incorp.” value is listed as 14,094 cpm in assay [4] (4 μl enzyme) and 18,448 cpm in assay [4] (8 μl enzyme).
With `CCN1C(=O)C=CC1=O` [NEM, N-ethylmaleimide], the inhibition at 500 µM in assay [5] (0.5 mM, read-out: inhibition of enzymatic activity) amounted to 90%. Further, the “Activity (cpm in Sugar-P)” value in assay [5] (inhibitor 0.1 mM) was found to be 9050 cpm; in assay [5] (inhibitor 0.5 mM), 805 cpm; in assay [5] (inhibitor 1 mM), 40 cpm; in assay [5] (inhibitor 2 mM) it was 0 cpm; in assay [5] (inhibitor 4 mM) it was 0 cpm.
In the case of `CC(=O)N[C@@H]1C(O)O[C@H](CO)[C@@H](O)[C@@H]1O` (stereo partly drawn) [ManNAc, N-acetylmannosamine], the “Radioactivity Incorp.” value stood at 475 cpm in assay [4] (4 μl enzyme) and 89 cpm in assay [4] (8 μl enzyme). The “activity as phosphate acceptor” value in assay [4] was “inactive”.
Consider `Nc1nc2c(ncn2[C@@H]2O[C@H](COP(=O)(O)OP(=O)(O)O)[C@@H](O)[C@H]2O)c(=O)[nH]1` [GDP], for which, in assay [1], the “Radioactivity in Sugar-P” value is 10 and the “Specific Activity” value was 0.1 nmol/mg.
As to `CC(=O)N[C@H]1C(O)O[C@H](CO)[C@@H](O)[C@@H]1O` (stereo partly drawn) [GlcNAc, N-acetylglucosamine], the Radioactivity Incorporated in assay [3] (2 ul enzyme) came to 133 cpm; in assay [3] (4 ul enzyme) it was 84 cpm. The “Radioactivity Incorporated (Δ cpm)” value in assay [3] (2 ul enzyme) was 60 cpm; in assay [3] (4 ul enzyme), 10 cpm. The “Radioactivity Incorp.” value in assay [4] (4 μl enzyme) is on record as 135 cpm; in assay [4] (8 μl enzyme), 147 cpm. Moreover, in assay [4], the “activity as phosphate acceptor” value is “inactive”.
For the compound `[Cu+2]` [Cu^++], the “stimulation of the kinase” value in assay [2] was “inactive”.
Take `N[C@H]1C(O)O[C@H](CO)[C@H](O)[C@@H]1O` (stereo partly drawn) [GalN, galactosamine]: the “activity as substrate” value in assay [3] was “slight activity”. In assay [3] (2 ul enzyme), the Radioactivity Incorporated came out at 300 cpm and the “Radioactivity Incorporated (Δ cpm)” value is on record as 173 cpm. Also, the Radioactivity Incorporated in assay [3] (4 ul enzyme) amounted to 440 cpm. The “Radioactivity Incorp.” value in assay [4] (4 μl enzyme) came out at 449 cpm. Besides, in assay [4] (8 μl enzyme), the “Radioactivity Incorp.” value is 468 cpm. In addition, in assay [4], the “activity as phosphate acceptor” value is “inactive” and the “activity as % of the activity observed with GalNAc” value is on record as 1%.
`C=C(OP(=O)(O)O)C(=O)O` [phosphoenolpyruvate]: in assay [1], the “activity as phosphate donor” value is on record as “No activity”.
Turning to `[Zn+2]` [Zn^++], in assay [2], the “stimulation of the kinase” value was “inactive”.
`O=c1ccn([C@@H]2O[C@H](COP(=O)(O)OP(=O)(O)O)[C@@H](O)[C@H]2O)c(=O)[nH]1` [UDP]: in assay [1], the “Radioactivity in Sugar-P” value was 30 and the “Specific Activity” value stood at 0.5 nmol/mg.
With `NC(=O)CI` [IAA, iodoacetamide], the “concentration at which effective as an inhibitor” value in assay [5] is “above 1 mM”. The “Activity (cpm in Sugar-P)” value was found to be 8260 cpm in assay [5] (inhibitor 0.1 mM); 7660 cpm in assay [5] (inhibitor 0.5 mM); 5490 cpm in assay [5] (inhibitor 1 mM); 2170 cpm in assay [5] (inhibitor 2 mM); 658 cpm in assay [5] (inhibitor 4 mM).
Regarding `Nc1nc2c(ncn2[C@@H]2O[C@H](COP(=O)(O)OP(=O)(O)OP(=O)(O)O)[C@@H](O)[C@H]2O)c(=O)[nH]1` [GTP], in assay [1], the “activity as phosphate donor” value was “only slightly above background levels”, the “Radioactivity in Sugar-P” value is recorded as 300 and the “Specific Activity” value stood at 4.7 nmol/mg.
